Consider two substances from patent publication US6849612B2, “Oligonucleotide modulation of cell adhesion” (ISIS Pharmaceuticals, Inc., priority 1993, dated 2005).

Strand notation (5' to 3'): a small letter for the sugar, then the base; units joined by * are phosphorothioate-linked, units joined directly phosphodiester-linked; [ ] holds rarer units or linkages, { } end groups; capitals alone tell only the bases. d = 2'-deoxy (DNA)

Series [1] concerns ICAM-1. The series is described as follows: ELISA of ICAM-1 cell surface expression in C8161 human melanoma cells. It is filed as cell-based. As to conditions: 15 μg/ml Lipofectin, 5 ng/ml TNF-α 16 hours. As to the method:
(§1) ICAM-1 expression on the cell surface was measured by ELISA. Cells were treated with increasing concentrations of antisense oligonucleotides in the presence of 15 μg/ml Lipofectin for 4 hours at 37° C. ICAM-1 expression was induced by incubation with 5 ng/ml TNF-α for 16 hours. Cells were washed 3× in DPBS and fixed for 20 minutes in 2% formaldehyde. Cells were washed in DPBS, blocked with 2% BSA for 1 hour at 37° C. and incubated with ICAM-1 monoclonal antibody 84H10 (AMAC, Inc., Westbrook, Me.). Detection of bound antibody was determined by incubation with a biotinylated goat anti-mouse IgG followed by incubation with […] streptavidin and developed with chlorophenol red-β-D-galactopyranoside and quantified by absorbance at 575 nm. ICAM-1 mRNA levels were measured by Northern blot analysis.
The data were expressed as percentage of control activity, calculated as follows: (ICAM-1 expression for oligonucleotide-treated, cytokine-induced cells)−(basal ICAM-1 expression)/(ICAM-1 cytokine-induced expression)−(basal ICAM-1 expression)×100.
(In general: In an ELISA, binding on a coated surface is turned into a signal by an enzyme label.)

Series [2] has as its system C8161 human melanoma cells. The series is described as follows: Experimental metastasis assay of oligonucleotide-treated C8161 cells in athymic nude mice. In kind it is in vivo. As to the method:
To evaluate the role of ICAM-1 in metastasis, experimental metastasis assays were performed by injecting 1×10^5 C8161 cells into the lateral tail vein of athymic nude mice. […] Assoc. Cancer Res. 1990, 13, 353].
After 4 weeks, mice were sacrificed, organs were fixed in Bouin's fixative and metastatic lesions on lungs were scored with the aid of a dissecting microscope. Four-week-old female athymic nude mice (Harlan Sprague Dawley) were used. Animals were maintained under the guidelines of the NIH. Groups of 4-8 mice each were tested in experimental metastasis assays.
Treatment of C8161 cells with antisense oligonucleotides ISIS 1570 and ISIS 2302, complementary to ICAM-1, was performed in the presence of the cationic lipid, Lipofectin (Gibco/BRL, Gaithersburg, Md.). Antisense oligonucleotides were synthesized as described in Example 3. Cells were seeded in 60 mm tissue culture dishes at 10^6 cells/ml and incubated at 37 °C for 3 days, washed with OPTI-MEM (Gibco/BRL) 3 times and 100 μl of OPTI-MEM medium was added to each well. 0.5 μM oligonucleotide and 15 μg/ml lipofectin were mixed at room temperature for 15 minutes. 25 μl of the oligonucleotide-lipofectin mixture was added to the appropriate dishes and incubated at 37° C. for 4 hours. The oligonucleotide-lipofectin mixture was removed and replaced with DME-F12 medium containing 10% fetal calf serum. After 4 hours, 500 U/ml TNF-α was added to the appropriate wells and incubated for 18 hours at which time cells were removed from the plates, counted and injected into athymic nude mice.

In series [3] the test system is ICAM-1. The series is described as follows: ELISA of ICAM-1 cell surface expression in oligonucleotide-pretreated, cytokine-stimulated HUVEC. It is filed as cell-based, human.
For the next series, the system named is ICAM-1 mRNA. The series is described as follows: Northern blot of ICAM-1 mRNA in C8161 cells. As to conditions: Northern blot analysis. It is filed as cell-based, human. The protocol: as §1
Series [4] deals with ICAM-1. The series is described as follows: Immunoprecipitation of 35S-labelled ICAM-1 from A549 cells. It is filed as cell-based, human. As to conditions: 1 μM oligonucleotide. As to the method:
The specificity of the antisense oligonucleotides ISIS 1570 and ISIS 1939 for ICAM-1 was evaluated by immunoprecipitation of ^35S-labelled proteins. A549 cells were grown to confluence in 25 cm^2 tissue culture flasks and treated with antisense oligonucleotides as described in Example 4. The cells were stimulated with interleukin-1β for 14 hours, washed with methionine-free DMEM plus 10% dialyzed fetal calf serum, and incubated for 1 hour in methionine-free medium containing 10% dialyzed fetal calf serum, 1 μM oligonucleotide and interleukin-1β as indicated. ^35S-Methionine/cysteine mixture (Tran^35S-label, purchased from ICN, Costa Mesa, Calif.) was added to the cells to an activity of 100 μCi/ml and the cells were incubated an additional 2 hours. Cellular proteins were extracted by incubation with 50 mM Tris-HCl pH 8.0, 150 mM NaCl, 1.0% NP-40, 0.5% deoxycholate and 2 mM EDTA (0.5 ml per well) at 4° C. for 30 minutes. The extracts were clarified by centrifugation at 18,000×g for 20 minutes. The supernatants were preadsorbed with 200 μl protein G-Sepharose beads (Bethesda Research Labs, Bethesda Md.) for 2 hours at 4° C., divided equally and incubated with either 5 μg ICAM-1 monoclonal antibody (purchased from AMAC Inc., Westbrook Me.) or HLA-A, B antibody (W6/32, produced by murine hybridoma cells obtained from the American Type Culture Collection, Bethesda, Md.) for 15 hours at 4° C. Immune complexes were trapped by incubation with 200 μl of a 50% suspension of protein G-Sepharose (v/v) for 2 hours at 4° C., washed 5 times with lysis buffer and resolved on an SDS-polyacrylamide gel. Proteins were detected by autoradiography.

In series [5] the test system is complementary DNA sequences (ICAM-1 target sites). The series is described as follows: Tm of oligonucleotide hybridized to complementary DNA. It is filed as binding, human. The note with it: as E23. An excerpt: The antisense oligonucleotides (synthesized as phosphorothioates) were hybridized to their complementary DNA sequences (synthesized as phosphodiesters). […] Tm's and free energies of duplex formation were obtained from fits of data to a two-state model with linear sloping baselines ([…]. and D. H. […] Results are averages of at least three experiments.

Take “ISIS 1570: phosphorothioate, human ICAM-1 AUG Codon (64-81), SEQ ID NO 1, TGGGAGCCATAGCGAGGC (antisense dT*dG*dG*dG*dA*dG*dC*dC*dA*dT*dA*dG*dC*dG*dA*dG*dG*dC)”: the “cell surface expression of ICAM-1” value with ICAM-1 [1] is listed as “decreased cell surface expression of ICAM-1”. The “No. Lung Metastases per Mouse (Mean ± S.E.M.)” value is recorded as 49 ± 6 in series [2] (C8161 cells treated with 0.5 μM oligonucleotide + Lipofectin + TNF-α, Lipofectin + TNF-α 81 ± 8) and 38 ± 15 in series [2] (C8161 cells treated with 0.5 μM oligonucleotide + Lipofectin, no TNF-α, Lipofectin only 64 ± 13). In addition, the “inhibition of ICAM-1 expression” value in the series on ICAM-1 [3] (0.1 μM oligonucleotide, HUVEC, 8 μM DOTMA, interleukin-1β 5 units/ml) is on record as 70%; with ICAM-1 [3] (1 μM oligonucleotide, HUVEC, 8 μM DOTMA, interleukin-1β 5 units/ml) it was 90%; in the series with ICAM-1 [3] (1 μM, HUVEC stimulated with increasing concentrations of tumor necrosis factor and interleukin-1), “inhibits expression of ICAM-1”. For the same substance, in the series on ICAM-1 [3] (COMPOUND 2 prehybridized to COMPOUND 3 prior to addition to the cells), the “effect on ICAM-1 expression after prehybridization to the sense strand” value is listed as “attenuated”. Further, the “ICAM-1 mRNA levels” value with ICAM-1 mRNA is on record as “decreased ICAM-1 mRNA levels only slightly”. Further, in the series on ICAM-1 [4] (5 units/ml interleukin-1β), the “decrease of ICAM-1 synthesis” value is recorded as “approximately 50%”.
Consider “ISIS 1939: P=S, human ICAM-1 3′-Untranslated (1952-1971), SEQ ID NO 15, CCCCCACCACTTCCCCTCTC (antisense dC*dC*dC*dC*dC*dA*dC*dC*dA*dC*dT*dT*dC*dC*dC*dC*dT*dC*dT*dC)”, for which the “cell surface expression of ICAM-1” value in the series with ICAM-1 [1] is “decreased cell surface expression of ICAM-1”. The “Tm relative to other oligonucleotides” value in series [5] was “lower than that of the majority of the other oligonucleotides”. For the same substance, in the series with ICAM-1 mRNA, the “ICAM-1 mRNA levels” value was “markedly reduced”. Also, the “ICAM-1 synthesis” value with ICAM-1 [4] (interleukin-1β) was “near background”.
